30 compounds from patent US20220096437A1, “ANTIBACTERIAL COMPOUNDS” (The University of Birmingham, priority 2019, published 2022) can be followed below.

Molecules are shown by their SMILES. ≈ marks a conversion by molar mass, not a printed value. Read-outs that look alike come from different tables or passages of the source.

The subject of this test is Mycobacterium tuberculosis H37Rv. Description: Susceptibility testing against Mycobacterium tuberculosis H37Rv (broth microdilution, resazurin readout). Type of test: cell-based. The note with it: M. tuberculosis H37Rv, 7 days at 37° C., resazurin fluorescence; for MIC99: Gomperz fit, read-out: MIC99 (μM) M. tub H37Rv; for MIC50: read-out: MIC50 (μM) M. tub H37Rv. On the technique in general: Broth dilution looks for growth in wells or tubes with falling amounts of substance.

Where [1] appears, read: Mycobacterium tuberculosis, 168 h.

In the case of `Brc1cc(Br)cc(C2CC(CN3CCCC3)N2Cc2ccccc2Br)c1` (racemic) [Azet 34, rac-1-(((2,4-cis)-1-(2-bromobenzyl)-4-(3,5-dibromophenyl)azetidin-2-yl)methyl)pyrrolidine], under setting [1], the MIC99 (in general, the lowest concentration that inhibits either 99% of growth or 99% of the strains tested, depending on the study) was determined as 3.26 µM (≈ 1.77 µg/mL) and the MIC50 – broadly, the lowest concentration that inhibits either 50% of growth or 50% of the strains tested, depending on the study – was 7.03 µM (≈ 3.82 µg/mL). On the same counts, the results for `CN(C)CC1CC(c2ccc(OC(F)(F)F)cc2)N1Cc1ccccc1OC(F)(F)F` (racemic) [Azet 5, rac-N,N-dimethyl-1-((2,4- cis)-1-(2-(trifluoromethoxy)benzyl)-4-(4-(trifluoromethoxy)phenyl)azetidin-2-yl)methanamine] are 12 µM (≈ 5.38 µg/mL) and 9.9 µM (≈ 4.44 µg/mL). For `FC(F)(F)Oc1ccc(C2CC(CNC3CC3)N2Cc2ccccc2OC(F)(F)F)cc1` (racemic) [Azet 18, rac-N-(((2,4-cis)-1-(2-(trifluoromethoxy)benzyl)-4-(4-(trifluoromethoxy)phenyl)azetidin-2-yl)methyl)cyclopropana-mine], under setting [1], the MIC99 is 13 µM (≈ 5.99 µg/mL) and the MIC50 amounted to 11.9 µM (≈ 5.48 µg/mL).

On to `C#CCNCC1CC(c2cc(Br)cc(Br)c2)N1Cc1ccccc1Br` (racemic) [Azet 3, rac-N-(((2,4-cis)-1-(2-bromobenzyl)-4-(3,5-dibromophenyl)azetidin-2-yl)methyl)prop-2-yn-1-amine], for which the MIC50 under setting [1] turned out to be 22.8 µM (≈ 12 µg/mL). As to `CNCC1CC(c2ccc(OC(F)(F)F)cc2)N1Cc1ccccc1OC(F)(F)F` (racemic) [Azet 19, rac-N-methyl-1-((2,4-cis)-1-(2-(trifluoromethoxy)benzyl) (trifluoromethoxy)phenyl) azetidin-2-yl)methanamine], under setting [1], the MIC99 is 7.2 µM (≈ 3.13 µg/mL) and the MIC50 was 4.5 µM (≈ 1.95 µg/mL).

For the compound `CN(C)CC1CC(c2cc(C(F)(F)F)cc(C(F)(F)F)c2)N1Cc1ccccc1Br` (racemic) [Azet 4, rac-1-((2,4-cis)-4-(3,5-bis(trifluoromethyl)phenyl)-1-(2-bromobenzyl)azetidin-2-yl)-N,N-dimethylmethanamine], under setting [1], the MIC99 came to 7.3 µM (≈ 3.62 µg/mL) and the MIC50 amounted to 6.59 µM (≈ 3.26 µg/mL). In the case of `COCCNCC1CC(c2ccc(OC(F)(F)F)cc2)N1Cc1ccccc1OC(F)(F)F` (racemic) [Azet 20, rac-2-methoxy-N-(((2,4- cis)-1-(2-(trifluoromethoxy)benzyl)-4-(4-(trifluoromethoxy)phenyl)azetidin-2-yl)methyl)ethan-1-amine], under setting [1], the MIC99 is 18 µM (≈ 8.61 µg/mL) and the MIC50 worked out at 11 µM (≈ 5.26 µg/mL).

As to `COc1ccccc1CN1C(CN2CCCC2)CC1c1ccc(Br)cc1` (racemic) [Azet 48, rac-1-(((2,4-cis)-4-(4-bromophenyl)-1-(2-methoxybenzyl)azetidin-2-yl)methyl)pyrrolidine], the MIC50 under setting [1] was found to be 20.3 µM (≈ 8.43 µg/mL). In the case of `FC(F)(F)c1cc(C2CC(CN3CCCC3)N2Cc2ccccc2Br)cc(C(F)(F)F)c1` (racemic) [Azet 33, rac-1-(((2,4-cis)-4-(3,5-bis(trifluoromethyl)phenyl)-1-(2-bromobenzyl)azetidin-2-yl)methyl)pyrrolidine], under setting [1], the MIC99 came to 3.29 µM (≈ 1.72 µg/mL) and the MIC50 came to 6.93 µM (≈ 3.61 µg/mL). As to `FC(F)(F)c1ccccc1CN1C(CN2CCCC2)CC1c1ccccc1` (racemic) [Azet 63, rac-1-(((2,4-cis)-4-phenyl-1-(2-(trifluoromethyl)benzyl)a-zetidin-2-yl)methyl)pyrrolidine], under setting [1], the MIC50 was 22.7 µM (≈ 8.5 µg/mL). For the compound `CC(C)NCC1CC(c2ccc(OC(F)(F)F)cc2)N1Cc1ccccc1Br` (racemic) [Azet 29, rac-N-(((2,4-cis)-1-(2-bromobenzyl)-4-(4-(trifluoromethoxy)phenyl)azetidin-2-yl)methyl)propan-2-amine], under setting [1], the MIC99 amounted to 24.5 µM (≈ 11.2 µg/mL) and the MIC50 turned out to be 9.85 µM (≈ 4.5 µg/mL). Turning to `COc1ccccc1CN1C(CN2CCCC2)CC1c1ccccc1Cl` (racemic) [Azet 55, rac-1-(((2,4-cis)-4-(2-chlorophenyl)-1-(2-methoxybenzyl)azetidin-2-yl)methyl)pyrrolidine], the MIC50 under setting [1] stood at 27.6 µM (≈ 10.2 µg/mL). On the same count and under the same terms, for `FC(F)(F)Oc1cccc(C2CC(CN3CCCC3)N2Cc2ccccc2OC(F)(F)F)c1` (racemic) [Azet 58, rac-1-(((2,4-cis)-1-(2-(trifluoromethoxy)benzyl) (trifluoromethoxy)phenyl)azetidin-2-yl)methyl)pyrrolidine] the value was 9.14 µM (≈ 4.34 µg/mL); for `COc1ccccc1CN1C(CN2CCCC2)CC1c1cccc(Cl)c1` (racemic) [Azet 54, rac-1-(((2,4-cis)-4-(3-chlorophenyl)-1-(2-methoxybenzyl)azetidin-2-yl)methyl)pyrrolidine], 11.7 µM (≈ 4.34 µg/mL). With `COc1ccc(C2CC(CN3CCCC3)N2Cc2ccccc2Br)cc1` (racemic) [Azet 42, rac-1-(((2,4-cis)-1-(2-bromobenzyl)-4-(4-methoxyphenyl)azetidin-2-yl)methyl)pyrrolidine], under setting [1], the MIC99 stood at 42.6 µM (≈ 17.7 µg/mL) and the MIC50 is 20.8 µM (≈ 8.64 µg/mL). `Brc1cc(Br)cc(C2CC(CNC3CC3)N2Cc2ccccc2Br)c1` (racemic) [Azet 1, rac-N-(((2,4-cis)-1-(2-bromobenzyl)-4-(3,5-dibromophenyl)azetidin-2-yl)methyl)cyclopropana-mine]: under setting [1], the MIC99 was 51.8 µM (≈ 27.4 µg/mL) and the MIC50 was found to be 11.8 µM (≈ 6.24 µg/mL). As for `Cc1ccccc1CN1C(CN2CCCC2)CC1c1ccccc1` (racemic) [Azet 62, rac-1-(((2,4-cis)-1-(2-methylbenzyl)-4-phenylazetidin-2-yl)methyl)pyrrolidine], under setting [1], the MIC50 is 37 µM (≈ 11.9 µg/mL). `CN(C)CC1CC(c2cc(Br)cc(Br)c2)N1Cc1ccccc1Br` (racemic) [Azet 2, rac-1-((2,4-cis)-1-(2-bromobenzyl)-4-(3,5-dibromophenyl)azetidin-2-yl)-N,N-dimethylmethanamine]: the MIC50 under setting [1] is 5.6 µM (≈ 2.9 µg/mL). As for `FC(F)(F)Oc1ccc(C2CC(CN3CCC(c4ccc(C(F)(F)F)cc4)CC3)N2Cc2ccccc2Br)cc1` (racemic) [Azet 39, rac-1-(((2,4-cis)-1-(2-bromobenzyl)-4-(4-(trifluoromethoxy)phenyl)azetidin-2-yl)methyl)-4-(4-(trifluoromethyl)phenyl)pi-peridine], under setting [1], the MIC99 amounted to 90.9 µM (≈ 57 µg/mL) and the MIC50 was found to be 85 µM (≈ 53.3 µg/mL).

On to `CC(C)NCC1CC(c2ccccc2)N1Cc1ccccc1OC(F)(F)F` (racemic) [Azet 30, rac-N-(((2,4-cis)-4-phenyl-1-(2-(trifluoromethoxy)benzyl)azetidin-2-yl)methyl)propan-2-amine], for which, under setting [1], the MIC99 was 48.9 µM (≈ 18.5 µg/mL) and the MIC50 was 21.1 µM (≈ 7.99 µg/mL). As for `FC(F)(F)c1cccc(C2CC(CN3CCCC3)N2Cc2ccccc2C(F)(F)F)c1` (racemic) [Azet 50, rac-1-(((2,4-cis)-1-(2-(trifluoromethyl)benzyl)-4-(3-(trifluoromethyl)phenyl)a-zetidin-2-yl)methyl)pyrrolidine], under setting [1], the MIC50 was 7.04 µM (≈ 3.11 µg/mL).

With `FC(F)(F)Oc1ccccc1CN1C(CN2CCCC2)CC1c1ccccc1OC(F)(F)F` (racemic) [Azet 57, rac-1-(((2,4-cis)-1-(2-(trifluoromethoxy)benzyl) (trifluoromethoxy)phenyl)azetidin-2-yl)methyl)pyrrolidine], the MIC50 under setting [1] was found to be 7.05 µM (≈ 3.34 µg/mL). Same read-out and setting: the figure for `FC(F)(F)Oc1ccccc1CN1C(CN2CCCC2)CC1c1ccccc1` (racemic) [Azet 61, rac-1-(((2,4-cis)-4-phenyl-1-(2-(trifluoromethoxy)benzyl)azetidin-2-yl)methyl)pyrrolidine] is 17.9 µM (≈ 6.99 µg/mL).

For `COc1ccccc1CN1C(CN2CCCC2)CC1c1ccc(Cl)cc1` (racemic) [Azet 53, rac-1-(((2,4-cis)-4-(4-chlorophenyl)-1-(2-methoxybenzyl)azetidin-2-yl)methyl)pyrrolidine], under setting [1], the MIC50 was 10.3 µM (≈ 3.82 µg/mL). For `CC(C)(C)c1ccc(C2CC(CN3CCCC3)N2Cc2ccccc2C(F)(F)F)cc1` (racemic) [Azet 52, rac-1-(((2,4-cis)-4-(4-(tert-butyl)phenyl)-1-(2-(trifluoromethyl)benzyl)a-zetidin-2-yl)methyl)pyrrolidine], the MIC50 amounted to 8.62 µM (≈ 3.71 µg/mL). `FC(F)(F)c1ccc(C2CC(CN3CCCC3)N2Cc2ccccc2C(F)(F)F)cc1` (racemic) [Azet 51, rac-1-(((2,4-cis)-1-(2-(trifluoromethyl)benzyl)-4-(4-(trifluoromethyl)phenyl)a-zetidin-2-yl)methyl)pyrrolidine]: under setting [1], the MIC50 is 8.31 µM (≈ 3.68 µg/mL). Regarding `CC(C)NCC1CC(c2ccc(OC(F)(F)F)cc2)N1Cc1ccccc1OC(F)(F)F` (racemic) [Azet 31, rac-N-(((2,4-cis)-1-(2-(trifluoromethoxy)benzyl)-4-(4-(trifluoromethoxy)phenyl)azetidin-2-yl)methyl)propan-2-amine], under setting [1], the MIC99 was determined as 26.4 µM (≈ 12.2 µg/mL) and the MIC50 stood at 8.89 µM (≈ 4.11 µg/mL).

Take `FC(F)(F)c1ccccc1CN1C(CN2CCCC2)CC1c1ccccc1C(F)(F)F` (racemic) [Azet 49, rac-1-(((2,4-cis)-1-(2-(trifluoromethyl)benzyl)-4-(2-(trifluoromethyl)phenyl)a-zetidin-2-yl)methyl)pyrrolidine]: the MIC50 under setting [1] came to 6.68 µM (≈ 2.96 µg/mL). Take `Clc1cc(Cl)cc(C2CC(CN3CCCC3)N2Cc2ccccc2Br)c1` (racemic) [Azet 32, rac-1-(((2,4-cis)-1-(2-bromobenzyl)-4-(3,5-dichlorophenyl)azetidin-2-yl)methyl)pyrrolidine]: under setting [1], the MIC99 was determined as 9.21 µM (≈ 4.18 µg/mL) and the MIC50 came to 7.58 µM (≈ 3.44 µg/mL). Take `FC(F)(F)Oc1ccc(C2CC(CN3CCCC3)N2Cc2ccccc2OC(F)(F)F)cc1` (racemic) [Azet 59, rac-1-(((2,4-cis)-1-(2-(trifluoromethoxy)benzyl)-4-(4-(trifluoromethoxy)phenyl)azetidin-2-yl)methyl)pyrrolidine]: under setting [1], the MIC99 turned out to be 6.25 µM (≈ 2.97 µg/mL) and the MIC50 is 9.42 µM (≈ 4.47 µg/mL).
